Experimental data: article PMC10185643, “Improved LC–MS identification of short homologous peptides using sequence-specific retention time predictors” (Analytical and Bioanalytical Chemistry, 2023)

Assay: Reversed-phase LC-MS experimental retention time of short peptides
Type: physicochemical
Settings: for RT: experimental retention time, reversed-phase LC-MS, Table S1, column Source gives the peptide's origin (1-4 = synthesis route of homologous peptides, enzyme)
Description: All analyses were performed on an UltiMate 3000 RS chromatography system equipped with a UV detector, connected to a Q-Exactive Plus Hybrid Quadrupole-Orbitrap mass spectrometer (Thermo Fischer Scientific, Waltham, MA, USA). An Xselect Peptide CSH C18 130 Å column (particle size 2.5 µm, dimensions 150 × 2.1 mm, Waters, Etten-Leur, the Netherlands) with associated VanGuard pre-column was used for the separations. The analytes were eluted at a flow rate of 0.35 ml/min using a linear gradient of water (solvent A) and acetonitrile (solvent B) both fortified with 0.1% formic acid. […] The column temperature was maintained at 40 °C and the auto-sampler at 4 °C. The injection volume was 5 µL.
The sheath gas was set to 48 arbitrary units, the auxiliary gas was set to 11 arbitrary units, and the spray voltage was set to 3.7 kV. The mass spectrometer was set to operate in full-scan MS data-dependent MS^2 (ddMS^2) mode. Full-scan spectra were acquired at a resolution of 70.000 in the m/z range 80–1200 using a maximum ion injection time of 100 ms, unless stated otherwise. […] The maximum injection time was set to 150 ms, and a normalized stepped collision energy was applied of 15, 30 and 45 arbitrary units.

| Substance | RT | RT (retention time) (Table S1, Source: enzyme, experimental reversed-phase LC-MS retention time, decimal comma) |
| --- | --- | --- |
| CLVR | 4,57 |  |
| CPFD |  | 13,62 |
| KCEVF | 4,52 |  |
